Legend:
MDA-MB-231 = test: Cytotoxicity against human MDA-MB-231 cells assessed as decrease in cell viability after 24 hrs by MTT assay; assay type: functional, cell-based; conditions: MDA-MB-231, 24 h
[1] = biological target: T1, NAD-dependent protein deacetylase sirtuin-1 (Homo sapiens) (UniProt Q96EB6); test: Inhibition of human Sirt1 expressed in bacteria at 10 uM using fluorophorelabeled substrate peptide after 15 mins by fluorescence assay relative to control
T1 sequence (whole entry): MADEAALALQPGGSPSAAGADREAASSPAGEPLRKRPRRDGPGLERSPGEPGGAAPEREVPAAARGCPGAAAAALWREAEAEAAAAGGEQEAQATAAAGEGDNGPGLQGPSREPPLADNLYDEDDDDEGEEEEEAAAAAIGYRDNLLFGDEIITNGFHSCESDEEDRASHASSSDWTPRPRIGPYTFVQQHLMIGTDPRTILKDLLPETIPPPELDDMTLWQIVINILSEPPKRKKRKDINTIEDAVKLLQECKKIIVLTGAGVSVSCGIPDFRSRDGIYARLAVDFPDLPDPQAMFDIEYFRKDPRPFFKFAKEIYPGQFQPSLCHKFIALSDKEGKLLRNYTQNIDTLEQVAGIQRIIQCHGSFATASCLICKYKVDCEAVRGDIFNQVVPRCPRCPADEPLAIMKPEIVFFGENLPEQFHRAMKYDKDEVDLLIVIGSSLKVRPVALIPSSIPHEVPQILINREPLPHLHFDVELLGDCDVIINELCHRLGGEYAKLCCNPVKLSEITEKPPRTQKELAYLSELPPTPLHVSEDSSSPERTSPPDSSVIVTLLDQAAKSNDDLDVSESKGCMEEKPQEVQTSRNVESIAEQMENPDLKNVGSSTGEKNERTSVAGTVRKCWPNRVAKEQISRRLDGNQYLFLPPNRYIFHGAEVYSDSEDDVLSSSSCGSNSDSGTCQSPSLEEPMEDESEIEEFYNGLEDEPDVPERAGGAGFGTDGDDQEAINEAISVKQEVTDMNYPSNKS

COLO 205 = test: Cytotoxicity against human COLO205 cells assessed as decrease in cell viability after 24 hrs by MTT assay; assay type: functional, cell-based; conditions: COLO 205, 24 h
K562 = test: Cytotoxicity against human K562 cells assessed as decrease in cell viability after 24 hrs by MTT assay; assay type: functional, cell-based; conditions: K562, 24 h

inhibition [1]	Structure (SMILES)	IC50 (MDA-MB-231)	IC50 (COLO 205)	IC50 (K562)
46 to 69%	CCCc1nn(C)c2c1NC1(NC2=O)C(=O)N(Cc2ccccc2)c2ccccc21 (centres undefined)	38 µM	15 µM	16 µM
–	CCCc1nn(C)c2c1NC1(CCCCCC1)NC2=O	52 µM	26 µM	21 µM
–	CCCCCCCCCCCCN1C(=O)C2(NC(=O)c3c(sc4c3CCCC4)N2)c2ccccc21 (centres undefined)	29 µM	16 µM	27 µM
–	CCCc1nn(C)c2c1NC1(NC2=O)C(=O)N(CC)c2ccccc21 (centres undefined)	41 µM	16 µM	22 µM
–	CCCc1nn(C)c2c1NC1(CCCC1)NC2=O	34 µM	17 µM	14 µM
–	CCCc1nn(C)c2c1NC1(CCCCC1)NC2=O	35 µM	18 µM	16 µM
46 to 69%	CN1C(=O)C2(NC(=O)c3c(sc4c3CCCC4)N2)c2ccccc21 (centres undefined)	39 µM	9 µM	16 µM
–	CCCc1nn(C)c2c1NC1(NC2=O)C(=O)N(C)c2ccccc21 (centres undefined)	34 µM	15 µM	20 µM
–	CCN1C(=O)C2(NC(=O)c3c(sc4c3CCCC4)N2)c2ccccc21 (centres undefined)	34 µM	12 µM	21 µM
46 to 69%	CCCCCCCCCCCCCCCCN1C(=O)C2(NC(=O)c3c(sc4c3CCCC4)N2)c2ccccc21 (centres undefined)	34 µM	18 µM	19 µM
–	CCCc1nn(C)c2c1NC1(CCC(C)(C)CC1)NC2=O	45 µM	24 µM	19 µM
46 to 69%	CC(C)N1C(=O)C2(NC(=O)c3c(sc4c3CCCC4)N2)c2ccccc21 (centres undefined)	22 µM	6 µM	12 µM
46 to 69%	CCCc1nn(C)c2c1NC1(NC2=O)C(=O)N(C(=O)OC(C)(C)C)c2ccccc21 (centres undefined)	28 µM	10 µM	15 µM

— ChEMBL document CHEMBL3997827, “Synthesis of novel spiro[pyrazolo[4,3-d]pyrimidinones and spiro[benzo[4,5]thieno[2,3-d]pyrimidine-2,3'-indoline]-2',4(3H)-diones and their evaluation for anticancer activity” (Bioorg Med Chem Lett, 2017)
